The target of assay [1] is T1, Caspase-6 (Homo sapiens, UniProt P55212).
T1 sequence (P55212 whole entry): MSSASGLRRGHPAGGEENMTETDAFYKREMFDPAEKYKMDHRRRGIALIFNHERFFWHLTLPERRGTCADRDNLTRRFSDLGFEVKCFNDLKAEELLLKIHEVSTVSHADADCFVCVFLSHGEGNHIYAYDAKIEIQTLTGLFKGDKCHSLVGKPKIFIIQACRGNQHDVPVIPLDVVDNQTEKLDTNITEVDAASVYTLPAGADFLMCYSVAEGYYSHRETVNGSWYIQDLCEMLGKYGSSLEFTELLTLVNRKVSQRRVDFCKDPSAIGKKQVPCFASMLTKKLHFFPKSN
The assay is described as follows: human caspase-6 inhibitors, dose response, biochemical, VEID-R110 fluorescence, cherry-pick (AID 720632).

In assay [2] the target is T2, Microphthalmia-associated transcription factor (Homo sapiens, UniProt O75030).
T2 sequence (O75030 whole entry): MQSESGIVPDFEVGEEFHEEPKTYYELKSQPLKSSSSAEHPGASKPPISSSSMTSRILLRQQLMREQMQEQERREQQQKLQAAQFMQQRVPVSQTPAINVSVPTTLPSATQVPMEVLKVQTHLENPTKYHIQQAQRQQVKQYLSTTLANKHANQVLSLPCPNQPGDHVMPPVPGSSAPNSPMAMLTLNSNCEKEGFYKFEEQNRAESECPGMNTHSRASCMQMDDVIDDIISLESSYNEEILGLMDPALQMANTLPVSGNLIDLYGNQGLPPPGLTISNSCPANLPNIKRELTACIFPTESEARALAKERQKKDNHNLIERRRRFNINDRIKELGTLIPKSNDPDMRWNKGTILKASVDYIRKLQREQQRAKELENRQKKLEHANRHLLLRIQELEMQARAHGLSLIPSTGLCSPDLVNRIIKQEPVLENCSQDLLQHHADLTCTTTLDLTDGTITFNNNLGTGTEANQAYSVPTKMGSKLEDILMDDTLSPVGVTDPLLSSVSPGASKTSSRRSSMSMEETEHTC
The assay is described as follows: TRPM1 promoter luciferase signal decrease, dose response, MITF inhibitor project, cell-based, SK-MEL-5, cherry-picked, set 3 (AID 493073).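 Note: SK-MEL-5 melanoma cells with luciferase driven by the MITF target TRPM1 promoter.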 Type of assay: functional.

In assay [3] the target is Serine/threonine-protein phosphatase PP1-alpha catalytic subunit (Homo sapiens, UniProt P62136). The assay is described as follows: PP1 phosphatase inhibitors, dose response, biochemical, fluorescence (AID 2394).
The target of assay [4] is T3, Sentrin-specific protease 7 (Homo sapiens, UniProt Q9BQF6).
T3 sequence (Q9BQF6 whole entry): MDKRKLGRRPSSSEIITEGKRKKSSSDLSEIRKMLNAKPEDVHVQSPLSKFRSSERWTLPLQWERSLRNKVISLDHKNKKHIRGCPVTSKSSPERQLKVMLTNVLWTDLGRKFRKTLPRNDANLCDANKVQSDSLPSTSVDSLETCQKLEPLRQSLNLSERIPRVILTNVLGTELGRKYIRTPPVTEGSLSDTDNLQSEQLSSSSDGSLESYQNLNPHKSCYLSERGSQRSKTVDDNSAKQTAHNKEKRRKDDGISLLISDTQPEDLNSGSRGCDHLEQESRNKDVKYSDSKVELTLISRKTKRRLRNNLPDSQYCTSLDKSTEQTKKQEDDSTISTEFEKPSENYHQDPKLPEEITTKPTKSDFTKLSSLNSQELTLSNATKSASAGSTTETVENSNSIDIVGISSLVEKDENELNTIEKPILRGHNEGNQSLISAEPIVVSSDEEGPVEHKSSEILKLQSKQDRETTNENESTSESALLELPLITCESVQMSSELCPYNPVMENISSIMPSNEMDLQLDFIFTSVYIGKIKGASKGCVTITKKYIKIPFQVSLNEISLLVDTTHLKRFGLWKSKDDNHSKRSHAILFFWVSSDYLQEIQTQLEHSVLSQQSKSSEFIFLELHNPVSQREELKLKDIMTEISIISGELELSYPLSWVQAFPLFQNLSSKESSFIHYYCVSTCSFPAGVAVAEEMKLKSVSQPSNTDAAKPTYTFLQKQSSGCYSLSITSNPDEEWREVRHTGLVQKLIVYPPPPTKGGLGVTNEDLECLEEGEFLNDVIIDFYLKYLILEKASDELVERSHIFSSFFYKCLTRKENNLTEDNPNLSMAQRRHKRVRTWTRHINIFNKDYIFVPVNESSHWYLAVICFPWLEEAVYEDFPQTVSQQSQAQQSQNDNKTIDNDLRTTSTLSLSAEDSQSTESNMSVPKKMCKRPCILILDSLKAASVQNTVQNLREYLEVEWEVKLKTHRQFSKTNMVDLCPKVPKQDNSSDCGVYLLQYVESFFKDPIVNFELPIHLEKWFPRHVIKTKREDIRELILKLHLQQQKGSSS
The assay is described as follows: SENP7 protease inhibitors, SAR follow-up, biochemical, luminescence (AID 504497). Type of assay: functional.

Assay [5] concerns the target T4, Caspase-3 (Homo sapiens, UniProt P42574).
T4 sequence (P42574 whole entry): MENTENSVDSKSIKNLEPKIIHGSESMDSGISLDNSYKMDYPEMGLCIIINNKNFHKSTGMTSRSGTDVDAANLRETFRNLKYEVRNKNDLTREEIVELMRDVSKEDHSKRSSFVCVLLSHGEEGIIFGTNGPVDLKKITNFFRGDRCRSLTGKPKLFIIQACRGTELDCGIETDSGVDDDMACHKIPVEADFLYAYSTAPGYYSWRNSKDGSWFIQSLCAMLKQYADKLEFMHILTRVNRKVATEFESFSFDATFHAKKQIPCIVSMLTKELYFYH
The assay is described as follows: Dose-response confirmation of uHTS inhibitor hits of Sentrin-Specific Protease 8 in a Caspase-3 Fluorescence assay. It counts as functional.

Assay [6] deals with Interleukin-1 receptor-associated kinase 4 (Homo sapiens, UniProt Q9NWZ3). It counts as functional.
In assay [7] the target is Cyclin-dependent kinase 8 (Homo sapiens, UniProt P49336). The assay is described as follows: Navigating the Kinome. Panel member name: CDK8. It counts as functional.
In assay [8] the target is Ribosomal protein S6 kinase alpha-5 (Homo sapiens, UniProt O75582). It counts as functional.
The target of assay [9] is Receptor-type tyrosine-protein kinase FLT3 (Homo sapiens, UniProt P36888). Type of assay: functional.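 Note: FLT3 was tested as one member of a kinome-wide kinase panel.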
The target in assay [10] is ALK tyrosine kinase receptor (Homo sapiens, UniProt Q9UM73). Type of assay: functional.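 Note: ALK tested as one member of a kinase panel screen.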
Assay [11] addresses Cyclin-dependent kinase 9 (Homo sapiens, UniProt P50750). It counts as functional.
Assay [12] deals with 5'-AMP-activated protein kinase catalytic subunit alpha-1 (Homo sapiens, UniProt Q13131). It counts as functional.
Assay [13] has as its target Rho-associated protein kinase 2 (Homo sapiens, UniProt O75116). It counts as functional.
For assay [14], the target named is cGMP-dependent protein kinase 1 (Homo sapiens, UniProt Q13976). Type of assay: functional.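 Note: value from a kinome panel screen with PRKG1 as the panel member.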
Assay [15] has as its target Tyrosine-protein kinase receptor UFO (Homo sapiens, UniProt P30530). Type of assay: functional.

Activity calls are given as the source filed them.

Sequence of Rho-associated protein kinase 2 (O75116 whole entry): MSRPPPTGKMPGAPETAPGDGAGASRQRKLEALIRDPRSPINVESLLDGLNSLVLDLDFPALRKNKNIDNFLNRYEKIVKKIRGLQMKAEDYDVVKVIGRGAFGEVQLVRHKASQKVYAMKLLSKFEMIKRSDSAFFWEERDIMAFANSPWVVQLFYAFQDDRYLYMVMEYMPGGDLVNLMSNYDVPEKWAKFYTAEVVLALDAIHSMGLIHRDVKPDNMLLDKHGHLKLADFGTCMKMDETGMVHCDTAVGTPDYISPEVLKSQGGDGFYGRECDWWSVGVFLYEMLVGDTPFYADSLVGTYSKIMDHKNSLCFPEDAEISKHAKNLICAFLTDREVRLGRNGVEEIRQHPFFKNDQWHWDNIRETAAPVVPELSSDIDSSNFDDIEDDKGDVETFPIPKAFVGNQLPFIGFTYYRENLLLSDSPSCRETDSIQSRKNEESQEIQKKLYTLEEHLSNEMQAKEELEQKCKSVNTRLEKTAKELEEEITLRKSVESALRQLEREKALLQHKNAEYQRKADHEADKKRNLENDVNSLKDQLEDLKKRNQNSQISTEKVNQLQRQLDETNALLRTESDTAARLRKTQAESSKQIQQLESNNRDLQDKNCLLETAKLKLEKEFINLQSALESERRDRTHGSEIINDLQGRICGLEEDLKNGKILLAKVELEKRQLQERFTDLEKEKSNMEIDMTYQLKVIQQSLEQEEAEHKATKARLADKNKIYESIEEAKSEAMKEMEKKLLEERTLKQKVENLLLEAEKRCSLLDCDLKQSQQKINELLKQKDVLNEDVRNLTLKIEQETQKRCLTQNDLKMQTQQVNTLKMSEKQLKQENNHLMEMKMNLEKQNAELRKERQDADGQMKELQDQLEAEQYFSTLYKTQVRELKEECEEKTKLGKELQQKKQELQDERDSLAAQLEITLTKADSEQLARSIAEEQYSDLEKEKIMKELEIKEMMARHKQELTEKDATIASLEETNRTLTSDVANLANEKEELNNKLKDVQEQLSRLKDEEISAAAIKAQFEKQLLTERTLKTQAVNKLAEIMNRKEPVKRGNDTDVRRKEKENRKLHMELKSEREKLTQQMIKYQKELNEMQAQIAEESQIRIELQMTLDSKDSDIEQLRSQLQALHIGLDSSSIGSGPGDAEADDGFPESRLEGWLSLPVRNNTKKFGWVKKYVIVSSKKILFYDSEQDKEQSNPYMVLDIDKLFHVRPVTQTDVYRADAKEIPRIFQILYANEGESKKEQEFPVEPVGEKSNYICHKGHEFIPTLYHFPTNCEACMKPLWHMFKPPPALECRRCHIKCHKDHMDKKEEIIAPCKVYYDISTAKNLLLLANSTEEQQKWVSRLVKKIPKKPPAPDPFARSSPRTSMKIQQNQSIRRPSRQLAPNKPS
Sequence of Cyclin-dependent kinase 9 (P50750 whole entry): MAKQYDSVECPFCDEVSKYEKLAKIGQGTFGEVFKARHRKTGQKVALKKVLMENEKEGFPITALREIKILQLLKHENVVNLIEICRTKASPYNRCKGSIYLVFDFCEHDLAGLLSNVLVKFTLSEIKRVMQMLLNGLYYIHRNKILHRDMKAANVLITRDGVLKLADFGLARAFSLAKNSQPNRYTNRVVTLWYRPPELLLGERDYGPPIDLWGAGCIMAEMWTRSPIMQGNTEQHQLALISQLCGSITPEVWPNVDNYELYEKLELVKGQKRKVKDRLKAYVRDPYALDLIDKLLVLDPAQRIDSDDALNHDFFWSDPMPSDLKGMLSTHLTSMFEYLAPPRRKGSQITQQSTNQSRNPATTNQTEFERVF
Sequence of ALK tyrosine kinase receptor (Q9UM73 whole entry): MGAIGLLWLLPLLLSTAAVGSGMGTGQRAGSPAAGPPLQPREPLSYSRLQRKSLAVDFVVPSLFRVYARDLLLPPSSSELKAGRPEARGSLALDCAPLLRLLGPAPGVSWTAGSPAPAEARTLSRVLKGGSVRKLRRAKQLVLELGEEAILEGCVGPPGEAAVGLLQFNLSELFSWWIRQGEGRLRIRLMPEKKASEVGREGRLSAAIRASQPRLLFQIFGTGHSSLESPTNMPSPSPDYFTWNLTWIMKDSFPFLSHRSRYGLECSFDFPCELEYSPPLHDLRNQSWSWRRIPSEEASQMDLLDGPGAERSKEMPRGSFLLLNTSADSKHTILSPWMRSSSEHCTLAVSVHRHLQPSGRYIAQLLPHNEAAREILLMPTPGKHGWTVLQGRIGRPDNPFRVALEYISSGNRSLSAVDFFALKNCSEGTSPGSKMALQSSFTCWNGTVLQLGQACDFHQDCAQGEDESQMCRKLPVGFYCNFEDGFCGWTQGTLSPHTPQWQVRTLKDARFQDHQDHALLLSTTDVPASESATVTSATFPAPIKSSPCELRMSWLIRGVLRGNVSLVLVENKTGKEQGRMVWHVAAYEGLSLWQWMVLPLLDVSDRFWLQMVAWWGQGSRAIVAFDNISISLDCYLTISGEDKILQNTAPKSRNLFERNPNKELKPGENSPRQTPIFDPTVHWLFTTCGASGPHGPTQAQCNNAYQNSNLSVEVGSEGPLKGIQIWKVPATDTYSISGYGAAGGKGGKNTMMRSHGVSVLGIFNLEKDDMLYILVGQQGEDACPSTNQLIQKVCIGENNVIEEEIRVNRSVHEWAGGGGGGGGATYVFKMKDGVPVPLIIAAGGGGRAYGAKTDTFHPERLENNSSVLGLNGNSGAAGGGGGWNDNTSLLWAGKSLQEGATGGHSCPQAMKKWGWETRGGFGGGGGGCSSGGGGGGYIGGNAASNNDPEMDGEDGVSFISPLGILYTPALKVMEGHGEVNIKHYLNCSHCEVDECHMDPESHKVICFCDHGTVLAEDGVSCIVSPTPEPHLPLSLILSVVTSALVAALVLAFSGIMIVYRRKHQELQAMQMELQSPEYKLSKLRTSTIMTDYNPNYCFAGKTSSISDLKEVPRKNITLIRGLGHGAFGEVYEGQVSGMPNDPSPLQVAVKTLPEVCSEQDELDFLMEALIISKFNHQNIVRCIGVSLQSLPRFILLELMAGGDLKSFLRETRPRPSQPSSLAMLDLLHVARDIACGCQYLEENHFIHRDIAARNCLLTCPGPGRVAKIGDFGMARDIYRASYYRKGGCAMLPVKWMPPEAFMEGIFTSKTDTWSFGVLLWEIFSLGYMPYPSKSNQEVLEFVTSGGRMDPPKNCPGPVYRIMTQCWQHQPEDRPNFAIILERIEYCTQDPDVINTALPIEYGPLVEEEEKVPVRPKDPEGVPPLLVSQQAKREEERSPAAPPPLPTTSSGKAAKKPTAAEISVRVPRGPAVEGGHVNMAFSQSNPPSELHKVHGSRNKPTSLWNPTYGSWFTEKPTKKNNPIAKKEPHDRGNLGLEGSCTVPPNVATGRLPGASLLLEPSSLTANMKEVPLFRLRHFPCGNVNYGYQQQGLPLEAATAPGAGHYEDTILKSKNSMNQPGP
Sequence of Cyclin-dependent kinase 8 (P49336 whole entry): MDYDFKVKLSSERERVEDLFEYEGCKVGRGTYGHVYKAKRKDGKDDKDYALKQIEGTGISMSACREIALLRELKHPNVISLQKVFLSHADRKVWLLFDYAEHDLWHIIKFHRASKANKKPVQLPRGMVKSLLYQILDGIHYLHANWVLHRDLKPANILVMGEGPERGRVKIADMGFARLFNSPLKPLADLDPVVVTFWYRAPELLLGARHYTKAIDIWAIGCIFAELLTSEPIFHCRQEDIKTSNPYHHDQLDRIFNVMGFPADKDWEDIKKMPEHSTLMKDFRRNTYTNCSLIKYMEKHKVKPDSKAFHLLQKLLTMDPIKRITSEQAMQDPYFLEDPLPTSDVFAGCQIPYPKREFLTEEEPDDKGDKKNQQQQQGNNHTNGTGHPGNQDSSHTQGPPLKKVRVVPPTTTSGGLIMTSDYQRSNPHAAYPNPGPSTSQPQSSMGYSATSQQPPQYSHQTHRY
Sequence of Tyrosine-protein kinase receptor UFO (P30530 whole entry): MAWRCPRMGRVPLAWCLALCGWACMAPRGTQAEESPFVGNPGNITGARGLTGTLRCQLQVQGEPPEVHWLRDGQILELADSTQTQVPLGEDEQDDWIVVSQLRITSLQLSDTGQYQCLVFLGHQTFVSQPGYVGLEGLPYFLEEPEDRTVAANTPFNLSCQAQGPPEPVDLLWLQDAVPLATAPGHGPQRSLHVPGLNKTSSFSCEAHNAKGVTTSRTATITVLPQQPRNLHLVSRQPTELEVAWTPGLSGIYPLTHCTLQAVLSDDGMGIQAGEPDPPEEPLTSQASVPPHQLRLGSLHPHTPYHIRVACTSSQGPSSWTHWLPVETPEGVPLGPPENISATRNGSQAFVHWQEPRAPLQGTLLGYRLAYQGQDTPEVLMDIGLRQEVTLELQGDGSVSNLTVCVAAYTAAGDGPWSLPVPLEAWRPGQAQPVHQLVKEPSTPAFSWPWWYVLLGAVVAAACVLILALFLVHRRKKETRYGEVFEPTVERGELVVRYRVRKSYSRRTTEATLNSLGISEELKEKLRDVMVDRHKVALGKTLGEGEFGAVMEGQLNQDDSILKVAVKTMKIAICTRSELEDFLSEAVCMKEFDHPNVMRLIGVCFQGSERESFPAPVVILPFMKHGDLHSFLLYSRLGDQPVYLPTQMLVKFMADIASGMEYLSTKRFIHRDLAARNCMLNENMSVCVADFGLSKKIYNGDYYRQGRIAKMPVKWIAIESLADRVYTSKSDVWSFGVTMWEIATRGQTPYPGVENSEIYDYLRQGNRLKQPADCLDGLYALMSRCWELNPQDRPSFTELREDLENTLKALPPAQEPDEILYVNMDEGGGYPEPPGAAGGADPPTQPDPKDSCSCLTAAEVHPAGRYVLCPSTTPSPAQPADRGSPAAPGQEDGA
Sequence of Serine/threonine-protein phosphatase PP1-alpha catalytic subunit (P62136 whole entry): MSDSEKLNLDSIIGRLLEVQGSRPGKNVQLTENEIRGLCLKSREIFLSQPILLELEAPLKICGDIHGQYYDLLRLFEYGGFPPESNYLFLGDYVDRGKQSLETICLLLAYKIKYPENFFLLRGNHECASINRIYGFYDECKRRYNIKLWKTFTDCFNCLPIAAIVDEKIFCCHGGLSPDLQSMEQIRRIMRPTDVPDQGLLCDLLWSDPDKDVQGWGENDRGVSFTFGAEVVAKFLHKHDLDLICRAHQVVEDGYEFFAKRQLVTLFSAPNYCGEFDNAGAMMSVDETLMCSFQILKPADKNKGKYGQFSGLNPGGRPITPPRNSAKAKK

For `Cc1c(NC(=O)C(C)OC(=O)c2ccc([N+](=O)[O-])s2)c(=O)n(-c2ccccc2)n1C` (stereo not given), the AC50 – broadly, the midpoint of the concentration-response curve, whichever way the signal moves – is 4820 nM (active) in assay [1] and 34100 nM (active) in [2].

For the compound `COc1cc(Br)c(C(=O)c2nccc3cc(OC)c(OC)cc23)cc1OC`, the IC50 – broadly, the concentration that gives 50% inhibition – in assay [3] is 52100 nM (not active); in [4], 2990 nM (active); in assay [5] it was 407 nM (active).

Turning to `CC(N)C1CCC(C(=O)Nc2ccnc3[nH]ccc23)CC1` (stereo not given), the Ki (as a rule, the equilibrium dissociation constant of an inhibitor or competing ligand from its target) is 2510 nM (active) in assay [6]; 501 nM (active) in assay [7]; 631 nM (active) in assay [8]; > 3160 nM (inactive) in [9]; 2000 nM (active) in assay [10]; > 1580 nM (inactive) in assay [11]. Also, the Ki in [12] is > 2510 nM (inactive); in assay [13], 25.1 nM (active); in [14], 631 nM (active); in [15], > 2000 nM (inactive).

For the origin of these results see ChEMBL document CHEMBL1201862, “PubChem BioAssay data set” (2004).
